Results from patent US7176261B2, “Angiotensin-(1-7) eluting polymer-coated medical device to reduce restenosis and improve endothelial cell function” (Medtronic, Inc., priority 2004, dated 2007).
Marks after values point to notes of the source that are not given here.

Key:
ACE = target: T1, ACE (Homo sapiens, UniProt P12821); conditions: after six months of treatment, more than 2,000 patients; cited from earlier work
T1 construct: host or cells: patients (in vivo, endogenous enzyme)

[1] = test system: smooth muscle cell proliferation; conditions: intravenous infusion; cited from earlier work
[2] = test system: rats with uncoated stents implanted in the abdominal aorta; experiment: Angiotensin-(1-7) pump study in rat aorta model (uncoated stents, micropump infusion); assay type: in vivo
Method: The effects of Ang-(1-7) on restenosis were studied in rats with uncoated stents implanted in the abdominal aorta with Ang-(1-7) infused by implantable micro pump. Twelve rats per group were implanted with stents and micropumps containing one of three infusion regimens for three weeks. Control rats received saline infusions and the Ang-(1-7) groups received infusion of Ang-(1-7) at 10 μg/kg/hr or 24 μg/kg/hr.
The rats receiving 24 μg/kg/hr, however, scored lower in neointimal level and percentage stenosis (Table 1 and FIG. 7). A 27% reduction in neointimal area was seen between the control rats and those receiving 24 μg/kg/hr Ang-(1-7). Ang-(1-7) has a clear beneficial effect on the restenosis rate.

[3] = Ang-(1-7) infusion 24 μg/kg/hr for three weeks

T1 sequence (P12821 30-1306): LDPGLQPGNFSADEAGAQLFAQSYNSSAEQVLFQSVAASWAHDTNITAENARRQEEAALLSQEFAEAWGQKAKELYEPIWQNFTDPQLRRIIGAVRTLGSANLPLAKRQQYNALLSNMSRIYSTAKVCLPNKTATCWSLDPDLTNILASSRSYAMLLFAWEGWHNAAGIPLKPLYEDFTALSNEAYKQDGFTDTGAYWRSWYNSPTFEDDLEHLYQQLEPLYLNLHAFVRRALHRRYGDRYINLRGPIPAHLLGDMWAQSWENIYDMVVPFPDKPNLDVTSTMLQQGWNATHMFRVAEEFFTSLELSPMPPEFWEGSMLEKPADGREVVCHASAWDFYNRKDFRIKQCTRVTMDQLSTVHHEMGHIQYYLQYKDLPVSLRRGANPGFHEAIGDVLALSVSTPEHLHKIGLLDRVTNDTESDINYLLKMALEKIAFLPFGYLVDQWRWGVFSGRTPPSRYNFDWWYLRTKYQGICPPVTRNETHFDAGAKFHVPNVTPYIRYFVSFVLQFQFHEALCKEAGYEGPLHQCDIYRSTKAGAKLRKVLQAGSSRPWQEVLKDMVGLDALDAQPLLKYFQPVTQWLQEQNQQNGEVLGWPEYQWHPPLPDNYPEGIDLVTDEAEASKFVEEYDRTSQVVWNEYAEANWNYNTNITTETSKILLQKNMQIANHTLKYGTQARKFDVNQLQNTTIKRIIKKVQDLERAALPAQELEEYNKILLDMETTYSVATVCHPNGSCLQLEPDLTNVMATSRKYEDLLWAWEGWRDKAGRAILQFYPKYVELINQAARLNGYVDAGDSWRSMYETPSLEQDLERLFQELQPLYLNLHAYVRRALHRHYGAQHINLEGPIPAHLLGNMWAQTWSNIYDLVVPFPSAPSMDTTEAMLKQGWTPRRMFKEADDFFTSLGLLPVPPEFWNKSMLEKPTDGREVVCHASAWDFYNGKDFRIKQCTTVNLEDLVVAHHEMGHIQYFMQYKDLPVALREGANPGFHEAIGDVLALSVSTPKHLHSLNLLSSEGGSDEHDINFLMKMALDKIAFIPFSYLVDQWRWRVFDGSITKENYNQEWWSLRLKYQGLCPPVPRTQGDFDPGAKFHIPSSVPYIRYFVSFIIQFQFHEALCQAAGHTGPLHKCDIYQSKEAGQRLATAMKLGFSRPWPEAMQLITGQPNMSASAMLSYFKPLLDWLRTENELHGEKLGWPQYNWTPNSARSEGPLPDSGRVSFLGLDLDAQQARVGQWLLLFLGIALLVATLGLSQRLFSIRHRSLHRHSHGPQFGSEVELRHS

| Molecule | incidence of restenosis vs placebo (ACE) | smooth muscle cell proliferation associated with balloon-catheter injury [1] | difference compared to the control group in any of the parameters measured ([2]; 10 μg/kg/hr infusion) | reduction in neointimal area vs control rats ([2]; 24 μg/kg/hr infusion) [%] | endothelial function as measured in the thoracic aorta position, proximal from the stent ([2]; Ang-(1-7) infusion) | Media Area [2, 3] [mm^2] | Neointimal Thickness [2, 3] [µm] | Percentage Stenosis ([2]; Ang-(1-7) infusion 24 μg/kg/hr for three weeks, p = 0.016 vs. control) [%] | Neointimal area ([2]; Ang-(1-7) infusion 24 μg/kg/hr for three weeks, p = 0.035 vs. control) |
| --- | --- | --- | --- | --- | --- | --- | --- | --- | --- |
| CCOC(=O)[C@H](CCc1ccccc1)N[C@H]1CCCN2CCC[C@@H](C(=O)O)N2C1=O [cilazapril] | no significant differences |  |  |  |  |  |  |  |  |
| Asp Arg Val Tyr lie His Pro (DRVYIHP; listed as Homo sapiens) [Ang-(1-7)] |  | inhibited | did not show any significant difference | 27 | improved endothelial function | 0.40 ± 0.05 | 111 ± 8 | 10.4 ± 1.0 | 0.51 ± 0.05* mm^2 |
